Measurements from ChEMBL document CHEMBL1127046, “Antitumor agents. 3. Synthesis and biological activity of 4 beta-alkyl derivatives containing hydroxy, amino, and amido groups of 4'-O-demethyl-4-desoxypodophyllotoxin as antitumor agents” (J Med Chem, 1993).

Legend:
P388 = test: Cytotoxicity against P388 leukemia; assay type: functional, cell-based; details: Mus musculus
[1] = Inhibition of DNA topoisomerase II from rat liver measured as 50% reduction in the amount of minicircle DNA relative to the control
Tubulin = Tubulin (Bos taurus, UniProt Q6B856+Q862L2+Q862F3); test: Drug concentration needed to produce a 50% reduction of bovine brain tubulin polymerization relative to the control
L1210 [2] = test: The number of mice survived for 30 days at the dose of 10 (mg/kg/day); assay type: functional, Mus musculus
L1210 [3] = test: Antitumor activity in vivo expressed as the percentage increase in life span at the dose of 10 (mg/kg/day); assay type: functional, Mus musculus

| SMILES | IC50 (P388) [µM] | IC50 [1] [µM] | IC50 (Tubulin) [µM] | Survivors (L1210 [2]) | ILS max (L1210 [3]) [%] |
| --- | --- | --- | --- | --- | --- |
| COc1cc([C@@H]2c3cc4c(cc3[C@@H](CCN(C)C3CCCCC3)C3COC(=O)[C@@H]32)OCO4)cc(OC)c1O.Cl (some centres not stated) | 0.033 | 60.9 | > 167 |  |  |
| COc1cc([C@@H]2c3cc4c(cc3[C@@H](CCN3CCOCC3)C3COC(=O)[C@@H]32)OCO4)cc(OC)c1O.Cl (some centres not stated) | 0.026 | 58.3 | > 167 | 0 | 81 |
| COc1cc([C@@H]2c3cc4c(cc3[C@@H](CC(=O)NCCN3CCOCC3)C3COC(=O)[C@@H]32)OCO4)cc(OC)c1O.Cl (some centres not stated) | 0.22 |  | > 100 |  |  |
| COc1cc([C@@H]2c3cc4c(cc3[C@@H](CCN3CCC[C@@H]3CO)C3COC(=O)[C@@H]32)OCO4)cc(OC)c1O.Cl (some centres not stated) | 0.063 | 112 | > 62 |  |  |
| COc1cc([C@@H]2c3cc4c(cc3[C@@H](CCN(C)N(C)c3ccccc3)C3COC(=O)[C@@H]32)OCO4)cc(OC)c1O (some centres not stated) | > 1 |  |  |  |  |
| COc1cc([C@@H]2c3cc4c(cc3[C@@H](CC(=O)N3CCC(N5CCCCC5)CC3)C3COC(=O)[C@@H]32)OCO4)cc(OC)c1O.Cl (some centres not stated) | 0.0084 | 266 | > 100 |  |  |
| COc1cc([C@@H]2c3cc4c(cc3[C@@H](CCN(C)Cc3ccccc3)C3COC(=O)[C@@H]32)OCO4)cc(OC)c1O.Cl (some centres not stated) | 0.15 | 97.3 | > 167 | 0 | 53 |
| COc1cc([C@@H]2c3cc4c(cc3[C@@H](CC(=O)N(C)CCN(C)C)C3COC(=O)[C@@H]32)OCO4)cc(OC)c1O.Cl (some centres not stated) | 0.032 | 252 | > 100 |  |  |
| COc1cc([C@@H]2c3cc4c(cc3[C@@H](CC(=O)NCCN3CCCCC3)C3COC(=O)[C@@H]32)OCO4)cc(OC)c1O.Cl (some centres not stated) | 3 | 60.6 | > 100 |  |  |
| COc1cc([C@@H]2c3cc4c(cc3[C@@H](CC(=O)NCc3ccncc3)C3COC(=O)[C@@H]32)OCO4)cc(OC)c1O.Cl (some centres not stated) | 2.2 |  | > 100 |  |  |
| COc1cc([C@@H]2c3cc4c(cc3[C@@H](CCN3CCCCC3)C3COC(=O)[C@@H]32)OCO4)cc(OC)c1O.Cl (some centres not stated) | 0.012 | 67.7 | > 167 |  |  |
| COc1cc([C@@H]2c3cc4c(cc3[C@@H](CCN(C)C(CO)CO)C3COC(=O)[C@@H]32)OCO4)cc(OC)c1O.Cl (some centres not stated) | 0.66 | 25.1 | > 167 |  |  |
| COCCN(C)CC[C@@H]1c2cc3c(cc2[C@@H](c2cc(OC)c(O)c(OC)c2)[C@H]2C(=O)OCC12)OCO3.Cl (some centres not stated) | 0.16 | 75.8 | > 100 |  |  |
| COc1cc([C@@H]2c3cc4c(cc3[C@@H](CCCN(C)C)C3COC(=O)[C@@H]32)OCO4)cc(OC)c1O.Cl (some centres not stated) | 0.012 | 73.5 | > 167 |  |  |
